Key:
[1] = tested on: CSC-relevant transcription factors in colon cancer HCT116 CD133+ and prostate xPT2 CD133+ cells; test: PCR array of stem cell-related transcription factors, colon and prostate CD133+ cells; type: cell-based, human; conditions: CMC2.24 as stated in Example 2
Experimental: Stem cell-specific gene expression profiles were studied with the PCR Array assay (SABiosciences, CA) in accordance with the manufacturer's recommendations. Briefly, total RNA was isolated from different cell populations (cancer stem cells expressing high levels of the CD133 and CD44, or whole floating spheroids that are enriched with CSCs) using PARIS kit (Ambion). Up to 1 μg of total RNA was treated with DNase and cDNA was prepared using RT^2 First Strand kit. For each analysis, pairs of the test and control cDNA samples were mixed with RT^2 qPCR Master mix and distributed across the PCR array 96-well plates, each of which contained 84 stem cell-related probes and control housekeeping genes. After cycling with real-time PCR (Opticon MJ Research or ABI 7300, Applied Biosystems), obtained amplification data (fold-changes in Ct values of all the genes) was analyzed with SABiosciences software.

[2] = tested on: c-Myc, Sox-2 and Oct4; test: Western blot of key transcription factors; type: cell-based, human
Experimental: (§1) Cells were lysed using Active Motif Nuclear Co-ip kit according to manufacturer's protocol. 20 μg of enriched nuclear and cytoplasmic extracts was subjected to electrophoresis in 10% polyacrylamide gel. The proteins were then transferred to a nitrocellulose membrane and developed with appropriate antibodies.

[3] = in vivo; cited from earlier work
[4] = tested on: PPT2 and PC3MM2 cell lines; test: FACS analysis of CD133 expression after drug treatment; type: cell-based, human
From the text: To ensure more reliable isolation of CSCs, cells were labeled with one or several markers conjugated with different fluorescent dyes, including anti-human CD133/2-APC (clone 293C3; Miltenyi Biotec, CA, USA); CD166-PE (clone 105902; R&D Systems, MN, USA); CD44-FITC (clone F10-44-2), CD44-PE (clone F10-44-2; Invitrogen/Biosources, USA); CD44v6-FITC (clone 2F10; R&D Systems, USA), EpCAM-FITC (Biosource, CA, USA), Pan-Keratin (C11)-Alexa Fluor® 488 (Cell Signaling) and all the isotype controls (Chemicon). Antibodies were diluted in buffer containing 5% BSA, 1 mM EDTA and 15-20% blocking reagent (Miltenyi Biotec) to inhibit unspecific binding to non-target cells. After 15 min incubation at 4° C., stained cells were sorted and analyzed with multiparametric flow cytometer BD FACSAria (Becton Dickinson, CA). Alternatively, dissociated cells were centrifuged at 950 g for 5 min at 4° C., rinsed with sterile MACS buffer (Miltenyi Biotec, CA) and labeled with CD133 Abs directly or indirectly conjugated with ferromagnetic beads (Miltenyi Biotec, CA) as recommended by manufacturer.
(§2) The CSC-specific cytotoxic effects were studied in two different settings both of which are known to maintain/promote sternness phenotype: adherent to type I collagen cultures and 3D cultures of floating spheroids (Baretton, G. B. 1994; Miyoshi, Y. 2000; Koivisto, P. 1995). The CD133^high/CD44^high cells (1×10^3 cells/well) isolated either from PPT2 or PC3MM2 cell lines were seeded onto the type I collagen-coated 96-well plates, cultured in the MSCGM for 2 days, and the treatment was initiated upon 90% confluency. Paclitaxel, SBT-1214 and CMC2.24 were dissolved in sterile DMSO and then serially diluted in MSCGM. […] Cell death was analyzed on adherent type I collagen cell cultures with the MTT assay [MTT=3-(4,5-dimethylthiazol-2-yl)-2,5-diphenyltetrazolium bromide] as recommended by manufacturer (Invitrogen). […]

[5] = tested on: p53 and p21; test: Western blot of pro-apoptotic proteins; type: cell-based, human; conditions: CD133+ and bulk PPT2 cells, previously not expressed
Experimental: as §1

[6] = tested on: prostate CD133+ cells (PPT2 and PC3MM2); test: MTT cytotoxicity assay, results stated for prostate CD133+ cells without split by line; type: cell-based, human; conditions: for concentration dependence of effect on prostate CD133+ cells: single agent
Experimental: (§3) The CSC-specific cytotoxic effects were studied in two different settings both of which are known to maintain/promote sternness phenotype: adherent to type I collagen cultures and 3D cultures of floating spheroids (Baretton, G. B. 1994; Miyoshi, Y. 2000; Koivisto, P. 1995). The CD133^high/CD44^high cells (1×10^3 cells/well) isolated either from PPT2 or PC3MM2 cell lines were seeded onto the type I collagen-coated 96-well plates, cultured in the MSCGM for 2 days, and the treatment was initiated upon 90% confluency. Paclitaxel, SBT-1214 and CMC2.24 were dissolved in sterile DMSO and then serially diluted in MSCGM. For testing the SBT-1214/CMC2.24 combination efficacy, the regular MSCGM was replaced with treatment medium containing SBT-1214 or Ptx at selected concentration range (from 10 nM to 10 μM) with 30 μM CMC2.24. Treatment medium was removed 24, 48 or 72 hr later, followed by return to the MSCGM. Cell death was analyzed on adherent type I collagen cell cultures with the MTT assay [MTT=3-(4,5-dimethylthiazol-2-yl)-2,5-diphenyltetrazolium bromide] as recommended by manufacturer (Invitrogen). Spheroids were cultured and treated on ULA plates.
(§4) The dose-response cytotoxicity of SBT-1214, CMC2.24/and their combination was evaluated by standard MTT assay (all of the in vitro experiments were repeated at least three times and each measurement for the MMT assay was performed in 4 repeats). The dose-response points were plotted as a percentage of the untreated control, the absorbance of which was considered as 100%. Data were expressed as means±SD for each drug concentration. The in vivo responses to drug treatment were evaluated as changes in tumor volume of drug-treated versus untreated control xenografts induced by particular type of cells. Data were expressed as means±SD for control and drug treated tumors. The statistical significance of differences was determined using Student's t-test. The parameters used were the two-tailed distribution and the paired test. P<0.05 was considered statistically significant.

[7] = tested on: CD133hi cells; test: Number of CD133hi cells after taxol, stemness-promoting cultures (FIG. 1); type: cell-based
Experimental: FIG. 1: The standard anti-cancer drug Taxol increases the ratios (shown by FACS analyses of cells with high expression of CD133) and actual number of CSCs (shown at right graph). CSC-enriched cell populations were cultured and treated in vitro under stemness-promoting condition, i.e. adherent to type I collagen (upper left panels) and as floating 3D spheroids (low left panels) in serum-free stem cell medium (MSCBM, Lonza).
Before any assays, particular cells were isolated using immunomagnetic and FACS cell sorting, characterized with FACS analysis and cultured under the stemness-promoting conditions (repeated cell sorting; serum-free stem cell medium; Lonza; low cell density; type I collagen-coated surfaces; non-adherent culturing on ultra-low adherent plates; Corning).

[8] = tested on: CD133+ PC3MM2 cells; test: MTT cytotoxicity assay, CD133+ PC3MM2 cells on type I collagen; type: cell-based, human; conditions: 72 hours, 10 nM-10 μM
Experimental: as §2
The dose-response cytotoxicity of SBT-1214, CMC2.24/and their combination was evaluated by standard MTT assay (all of the in vitro experiments were repeated at least three times and each measurement for the MMT assay was performed in 4 repeats). The dose-response points were plotted as a percentage of the untreated control, the absorbance of which was considered as 100%. Data were expressed as means±SD for each drug concentration. […] Data were expressed as means±SD for control and drug treated tumors. The statistical significance of differences was determined using Student's t-test. […]

[9] = tested on: CD133+ PPT2 cells; type: cell-based, human; conditions: 72 hours, 10 nM-10 μM
Experimental: as §3, §4

Row | SMILES | inhibition of CSC-relevant transcription factors [1] | key TF proteins ([2]; both nuclear and cytoplasmic fractions) | c-Myc and Sox2 expression ([2]; nuclear extracts of CD133+ and bulk PPT2 cells) | systemic toxicity [3] | ratios of cells with highest expression of CD133 ([4]; CMC2.24 treatment, FIG. 11C) | expression of p21 and p53 [5] | effect on cells, higher doses ([6]; 10-40 μM, 72 hr) | concentration dependence of effect on prostate CD133+ cells [6] | effect on cell proliferation, low concentrations ([6]; up to 10 μM, 72 hr) | number of CD133hi cells after treatment ([7]; 3D spheroids) [%] | number of CD133hi cells after treatment ([7]; type I collagen cultures) [%] | proliferation of the tumorigenic prostate cancer cells [8] | ratios of cells with highest expression of CD133 ([4]; 10 nM to 10 μM, 24 hours, concentration-dependent) | cell death ([6]; 10 μM, 48-72 hours) | proliferation of the tumorigenic prostate cancer cells [9]
1 | O=C(/C=C/c1ccc(O)cc1)C(C(=O)/C=C/c1ccc(O)cc1)C(=O)Nc1ccccc1 [CMC2.24] | profound inhibition of the majority | dramatic inhibition | moderate down-regulation | no systemic toxicity | did not induce an increase | induced expression | increasingly cytotoxic | biphasic effects | stimulated cell proliferation | – | – | – | – | – | –
2 | CC(=O)O[C@H]1C(=O)[C@@]2(C)[C@H]([C@H](OC(=O)c3ccccc3)[C@]3(O)C[C@H](OC(=O)[C@H](O)[C@@H](NC(=O)c4ccccc4)c4ccccc4)C(C)=C1C3(C)C)[C@]1(OC(C)=O)CO[C@@H]1C[C@@H]2O [Paclitaxel] | – | – | – | – | – | – | – | – | – | 149 | 160 | did not suppress proliferation | increased the ratios | about 40% | did not suppress proliferation
3 | COc1cc(/C=C/C(=O)CC(=O)/C=C/c2ccc(O)c(OC)c2)ccc1O [curcumin, diferuloylmethane] | – | – | – | – | – | – | – | biphasic effects | – | – | – | – | – | – | –

From patent US9675576B2, “Polyenolic zinc-binding agents (pezbins) actively promote inactivation of cancer stem cells and potentiate cytotoxic anti-tumor drug substances” (The Research Foundation for The State University of New York, priority 2012, dated 2017)
